Measured values taken from ChEMBL document CHEMBL1201862, “PubChem BioAssay data set” (2004).
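48-hour exposure; five concentrations; linearly interpolated endpoints. Abbreviation: GI50, concentration required for 50% inhibition of growth.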 Activity calls are given as the source filed them. Cut-off read from the data, not from the text of the source: active = GI50 up to about 1.1 µM and inactive = higher.

How the values were obtained:
Assay in all cases: growth of human tumour cells (NCI), 48 h
CCRF-CEM = tested on: CCRF-CEM
SW-620 = tested on: SW-620
NCI-H23 = tested on: NCI-H23
MOLT-4 = tested on: MOLT-4
EKVX = tested on: EKVX
HL-60 = tested on: HL-60
SF-539 = tested on: SF-539
OVCAR-8 = tested on: OVCAR-8
OVCAR-3 = tested on: OVCAR-3
SR = tested on: SR
A549 = tested on: A549
SNB-75 = tested on: SNB-75
SK-OV-3 = tested on: SK-OV-3
IGROV-1 = tested on: IGROV-1
HOP-92 = tested on: HOP-92
HCC 2998 = tested on: HCC 2998
NCI/ADR-RES = tested on: NCI/ADR-RES
PC-3 = tested on: PC-3
MCF7 = tested on: MCF7

SMILES | GI50 (CCRF-CEM) | GI50 (SW-620) | GI50 (NCI-H23) | GI50 (MOLT-4) | GI50 (EKVX) | GI50 (HL-60) | GI50 (SF-539) | GI50 (OVCAR-8) | GI50 (OVCAR-3) | GI50 (SR) | GI50 (A549) | GI50 (SNB-75) | GI50 (SK-OV-3) | GI50 (IGROV-1) | GI50 (HOP-92) | GI50 (HCC 2998) | GI50 (NCI/ADR-RES) | GI50 (PC-3) | GI50 (MCF7)
COc1c(I)c(OC)c2c(c1I)O[C@@H]1OCC[C@H]21 | 27.5 µM (inactive) | 35 µM (inactive) | 30.6 µM (inactive) | 20 µM (inactive) | 74.8 µM (inactive) | 17.3 µM (inactive) | > 100 µM (inactive) | 33 µM (inactive) | 27.7 µM (inactive) | 15.7 µM (inactive) | 34 µM (inactive) | 27.2 µM (inactive) | 31.8 µM (inactive) | 37.6 µM (inactive) | 22.7 µM (inactive) | 30.5 µM (inactive) |  |  | 
O=C1CSC(=O)/C1=C\NNc1nc2ccccc2o1 | 1.09 µM (active) | 29.8 µM (inactive) | 24.5 µM (inactive) | 21 µM (inactive) | 34.5 µM (inactive) | 0.586 µM (active) | 11.4 µM (inactive) | 13.6 µM (inactive) | 17.4 µM (inactive) | 24.5 µM (inactive) | 27.7 µM (inactive) |  | 32.3 µM (inactive) |  | 23.3 µM (inactive) | 54.1 µM (inactive) | 12.5 µM (inactive) | 21.8 µM (inactive) | 59.3 µM (inactive)
Cc1cccc(C)c1NC(=O)C(=O)Nn1c(NN)nc2ccccc2c1=O | > 100 µM (inactive) | > 100 µM (inactive) | > 100 µM (inactive) | > 100 µM (inactive) | > 100 µM (inactive) | > 100 µM (inactive) | > 100 µM (inactive) | > 100 µM (inactive) | > 100 µM (inactive) | > 100 µM (inactive) | > 100 µM (inactive) | > 100 µM (inactive) | > 100 µM (inactive) | > 100 µM (inactive) | > 100 µM (inactive) | > 100 µM (inactive) |  |  | 
Cc1cc2c(c(C)c1O)C(C)(C)CN2C(=O)C(C)(C)C | 77.6 µM (inactive) | > 100 µM (inactive) | 42.5 µM (inactive) | 59.4 µM (inactive) | > 100 µM (inactive) | 77.4 µM (inactive) | > 100 µM (inactive) | > 100 µM (inactive) | 14.4 µM (inactive) |  | > 100 µM (inactive) | 28 µM (inactive) | > 100 µM (inactive) | > 100 µM (inactive) | 20 µM (inactive) | > 100 µM (inactive) | 16.5 µM (inactive) | 46.3 µM (inactive) | > 100 µM (inactive)
Cc1ccccc1-n1c(CCl)nc2ccc(Br)cc2c1=O | 0.278 µM (active) | 3.13 µM (inactive) | 9.91 µM (inactive) | 19.8 µM (inactive) | 18.1 µM (inactive) | 5.77 µM (inactive) | 7.16 µM (inactive) | 12.5 µM (inactive) | 14.2 µM (inactive) | 3.73 µM (inactive) | 18.2 µM (inactive) | 12.8 µM (inactive) | 29.5 µM (inactive) | 14.3 µM (inactive) | 12.8 µM (inactive) | 16.8 µM (inactive) |  |  | 
N#Cc1nc(Nc2ccc([N+](=O)[O-])cc2)sc1N | 3.4 µM (inactive) | 20.5 µM (inactive) | 4.44 µM (inactive) | 2.48 µM (inactive) | 32.2 µM (inactive) | 3.53 µM (inactive) | 4.02 µM (inactive) | 19.4 µM (inactive) | 16.9 µM (inactive) | 0.675 µM (active) | 23.9 µM (inactive) | 39.4 µM (inactive) | 26.9 µM (inactive) | 23.4 µM (inactive) | 27.3 µM (inactive) | 11.7 µM (inactive) |  |  | 
O=C1C2C3C=C4c5ccccc5N(c5ccccc5)C4([C@@H]2C(=O)N1c1ccc(F)cc1)[C@H]1C(=O)N(c2ccc(F)cc2)C(=O)[C@@H]31 (some centres undefined) | > 100 µM (inactive) | > 100 µM (inactive) | > 100 µM (inactive) | > 100 µM (inactive) | > 100 µM (inactive) | > 100 µM (inactive) | > 100 µM (inactive) | > 100 µM (inactive) | > 100 µM (inactive) | > 100 µM (inactive) | > 100 µM (inactive) | > 100 µM (inactive) |  |  | > 100 µM (inactive) | > 100 µM (inactive) |  |  | 
C=C1CC2OC(=O)C(=C)C2C(O)C2C(=C)CCC12 (centres undefined) | 2.24 µM (inactive) | 3.82 µM (inactive) | 12.6 µM (inactive) | 2.75 µM (inactive) | 6.98 µM (inactive) | 1.89 µM (inactive) | 3.69 µM (inactive) | 4.1 µM (inactive) | 10.1 µM (inactive) | 3.21 µM (inactive) | 14.4 µM (inactive) | 9.86 µM (inactive) | 12.4 µM (inactive) | 17.7 µM (inactive) | 2.06 µM (inactive) | 10.2 µM (inactive) |  |  | 
